Measurements reported in patent publication US20020119107A1, “Method for protecting and restoring skin using selective MMP inhibitors” (priority 2000, published 2002).

Experiments:
bacterial collagenase = settings: gel exposed to bacterial collagenase plus 10 mM EDTA, EDTA then neutralized with Ca2+; FIG. 8B
Protocol: (§1) Collagen-degrading enzyme preparations. A collagenolytic enzyme preparation from Clostridium histolyticum (Collagenase type I; Worthington Biochemical Corp, Freehold, N.J.) was used to produce fragmentation of the collagen. […] The bacterial enzyme preparation cleaves intact collagen at numerous sites to produce low molecular weight fragments. Collagenolytic activity was quantified by exposing 1 mg of rat tail (monomeric) collagen to varying concentrations of enzyme preparation for 5 hours at 37° C. Intact collagen exposed to buffer alone served as control. At the end of the incubation period, the control collagen and enzyme-treated collagen were resolved on SDS-PAGE and stained with Coomassie brilliant blue. Laser densitometry was used to quantify α1(I) and α2(I) bands in the intact and digested preparations. […] Human basal cell carcinoma tissue was used as a source of collagen-degrading enzymes from human skin. Fresh tumor specimens obtained at surgery were cut into 2-mm pieces, and 6-8 tissue pieces incubated for 72 hours in 0.5 ml of Ca^2+-supplemented MCDB-153. Incubation was at 37° C. and 5% CO2. At the end of the incubation period, the culture fluid was obtained and used as the enzyme source.

[1] = test system: collagenolytic enzyme preparation from Clostridium histolyticum (Collagenase type I)
Protocol: as §1

[2] = test system: collagen-degrading enzymes from human skin (basal cell carcinoma conditioned medium)
Protocol: as §1

MMP-9 = MMP-9 (Homo sapiens, UniProt P14780); settings: from Whittaker et al., Chem. Rev. 1999; cited from earlier work
MMP-2 = target: T1, MMP-2 (Homo sapiens, UniProt P08253); settings: from Whittaker et al., Chem. Rev. 1999; cited from earlier work
T1 sequence (P08253 110-660): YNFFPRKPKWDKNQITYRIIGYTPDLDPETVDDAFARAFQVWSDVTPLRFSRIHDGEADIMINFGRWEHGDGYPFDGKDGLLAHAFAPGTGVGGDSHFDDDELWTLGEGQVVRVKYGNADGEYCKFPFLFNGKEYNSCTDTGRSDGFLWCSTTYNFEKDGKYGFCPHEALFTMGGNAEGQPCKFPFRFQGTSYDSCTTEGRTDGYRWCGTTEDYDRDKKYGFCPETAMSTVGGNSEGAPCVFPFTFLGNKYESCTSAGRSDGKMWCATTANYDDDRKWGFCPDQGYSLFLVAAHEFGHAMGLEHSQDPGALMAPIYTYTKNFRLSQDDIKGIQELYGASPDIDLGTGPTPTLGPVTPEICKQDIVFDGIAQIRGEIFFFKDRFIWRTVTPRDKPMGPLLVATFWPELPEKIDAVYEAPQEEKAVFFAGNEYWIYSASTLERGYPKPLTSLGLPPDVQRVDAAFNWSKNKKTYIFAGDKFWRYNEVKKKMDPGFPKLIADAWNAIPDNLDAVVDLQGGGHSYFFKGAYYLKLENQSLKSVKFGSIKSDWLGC

human skin collagenase = test: Fibroblast contraction of collagen gels treated with human skin collagenase; format: cell-based; settings: gels treated with human skin collagenase in the presence of 10 μg of aprotinin; FIG. 8B
Protocol: Preparation of polymerized collagen gels. […] During this period, the collagen formed a polymerized gel.
Collagen-degrading enzyme preparations. […] Intact collagen exposed to buffer alone served as control. […] Incubation was at 37° C. and 5% CO2.

Sequence of MMP-9 (P14780 94-707): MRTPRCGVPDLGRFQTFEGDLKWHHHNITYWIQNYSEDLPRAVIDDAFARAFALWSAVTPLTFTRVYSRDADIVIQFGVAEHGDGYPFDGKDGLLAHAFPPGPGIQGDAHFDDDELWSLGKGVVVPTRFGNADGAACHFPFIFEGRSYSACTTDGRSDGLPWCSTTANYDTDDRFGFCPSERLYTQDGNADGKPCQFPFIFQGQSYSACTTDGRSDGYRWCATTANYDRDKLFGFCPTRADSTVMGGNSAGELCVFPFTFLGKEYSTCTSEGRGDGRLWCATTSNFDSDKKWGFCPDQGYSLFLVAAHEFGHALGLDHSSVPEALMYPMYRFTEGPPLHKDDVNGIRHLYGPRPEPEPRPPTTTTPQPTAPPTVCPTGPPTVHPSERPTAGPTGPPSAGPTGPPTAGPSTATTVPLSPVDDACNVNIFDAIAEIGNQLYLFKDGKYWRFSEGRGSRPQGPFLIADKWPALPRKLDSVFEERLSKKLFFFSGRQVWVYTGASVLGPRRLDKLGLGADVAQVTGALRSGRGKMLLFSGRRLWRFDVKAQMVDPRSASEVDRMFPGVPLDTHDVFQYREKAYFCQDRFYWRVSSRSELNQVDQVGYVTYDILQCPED

## O=C(O)CN(CCN(CC(=O)O)CC(=O)O)CC(=O)O [EDTA, ethylene diamine tetraacetic acid]
Bacterial collagenase
  collagen contraction: no collagen contraction
[1]; 10 mM EDTA included in the overnight incubation buffer, gelatin and monomeric collagen
  reactivity in zymography: Reactivity was lost
[1]; 10 mM EDTA included in the reaction mixture, 1 mg rat tail monomeric collagen, 5 hours at 37° C.
  collagen breakdown: no detectable collagen breakdown
[2]; 10 mM EDTA in the incubation buffer, gelatin, collagen and β-casein
  zymographic activities: suppressed zymographic activities
[2]; 10 mM EDTA in the reaction mixture
  collagen-degradation: suppressed collagen-degradation

## CN1C(=O)N(C[C@H](C(=O)NO)[C@@H](CC2CCCC2)C(=O)N2CCCCC2)C(=O)C1(C)C [compound 52]
MMP-9
  IC50: 59 nM
MMP-2
  IC50: 154 nM

## aprotinin
Human skin collagenase
  collagen contraction: not
